Results reported in patent publication US20140031217A1, “HERBICIDAL COMPOSITIONS COMPRISING 4-AMINO-3-CHLORO-5-FLUORO-6-(4-CHLORO-2-FLUORO-3-METHOXYPHENYL)PYRIDINE-2-CARBOXYLIC ACID OR A DERIVATIVE THEREOF AND AUXIN TRANSPORT INHIBITORS” (DOW AGROSCIENCES LLC, priority 2012, published 2014).

What was measured:
[1] = tested on: CYPRO; test: In-water applied (paddy) greenhouse weed control, CYPRO; type: in vivo, Cyperus rotundus L.; conditions: 19 DAA
Protocol: (§1) Weed seeds or nutlets of the desired test plant species were planted in puddled soil (mud) prepared by mixing a shredded, non-sterilized mineral soil (50.5 percent silt, 25.5 percent clay, and 24 percent sand, with a pH of about 7.6 and an organic matter content of about 2.9 percent) and water at a 1:1 volumetric ratio. The prepared mud was dispensed in 365 mL aliquots into 16-ounce (oz.) non-perforated plastic pots with a surface area of 86.59 square centimeters (cm^2) leaving a headspace of 3 centimeters (cm) in each pot. Mud was allowed to dry overnight prior to planting or transplanting. Rice seeds were planted in Sun Gro MetroMix® 306 planting mixture, which typically has a pH of 6.0 to 6.8 and an organic matter content of about 30 percent, in plastic plug trays. Seedlings at the second or third leaf stage of growth were transplanted into 840 mL of mud contained in 32-oz. non-perforated plastic pots with a surface area of 86.59 cm^2 4 days prior to herbicide application. The paddy was created by filling the headspace of the pots with 2.5 to 3 cm of water. When required to ensure good germination and healthy plants, a fungicide treatment and/or other chemical or physical treatment was applied. The plants were grown for 4-22 days in a greenhouse with an approximate 14 h photoperiod which was maintained at about 29′C during the day and 26° C. during the night. Nutrients were added as Osmocote® (19:6:12, N:P:K+minor nutrients) at 2 g per 16-oz. pot and 4 g per 960-mL 32-oz. pot. Water was added on a regular basis to maintain the paddy flood, and supplemental lighting was provided with overhead metal halide 1000-Watt lamps as necessary. The plants were employed for testing when they reached the second or third true leaf stage.
(§2) Treatments consisted of the acid or esters of 4-amino-3-chloro-5-fluoro-6-(4-chloro-2-fluoro-3-methoxy-phenyl)pyridine-2-carboxylic acid (compound A) each formulated as an SC and various herbicidal components alone and in combination. Forms of compound A were applied on an acid equivalent basis.
(§3) Other herbicidal components were applied on an active ingredient basis and included auxin transport inhibiting (ATI) herbicides chlorflurenol-methyl (technical material), chlorflurenol (technical material), diflufenzopyr (technical material), dilfufenzopyr sodium (technical material), flurenol-methyl (technical material,) and naptalam (technical material).
(§4) Treatment requirements for each compound or herbicidal component were calculated based upon the rates being tested, the concentration of active ingredient or acid equivalent in the formulation, an application volume of 2 mL per component per pot, and an application area of 86.59 cm^2 per pot.
(§5) For formulated compounds, a measured amount was placed in an individual 100 or 200 mL glass vial and was dissolved in a volume of 1.25% (v/v) Agri-Dex® crop oil concentrate to obtain application solutions.
(§6) For technical grade compounds, a weighed amount was placed in an individual 100 to 200 mL glass vial and was dissolved in a volume of acetone to obtain concentrated stock solutions. […] The concentrated stock solutions obtained were diluted with an equivalent volume of an aqueous mixture containing 2.5% (v/v) crop oil concentrate so that the final application solutions contained 1.25% (v/v) crop oil concentrate.
(§7) Applications were made by injecting with a pipetter appropriate amounts of the application solutions, individually and sequentially, into the aqueous layer of the paddy. Control plants were treated in the same manner with the solvent blank. Applications were made so that all treated plant material received the same concentrations of acetone and crop oil concentrate.
(§8) The treated plants and control plants were placed in a greenhouse as described above and water was added as needed to maintain a paddy flood. […]

[2] = tested on: FIMMI; test: In-water applied (paddy) greenhouse weed control, FIMMI; type: in vivo, Fimbristylis miliacea (L.) Vahl; conditions: 19 DAA
Protocol: as §1, §2, §3, §4, §5, §6, §7, §8

COc1c(Cl)ccc(-c2nc(C(=O)OCc3ccccc3)c(Cl)c(N)c2F)c1F [Compound A Benzyl Ester]
Visual Weed Control (%) Obs ([1]; 8 gae/ha): 50% | Visual Weed Control (%) Obs ([1]; 16 gae/ha): 85% | Visual Weed Control (%) Obs ([1]; 32 gae/ha): 90% | Visual Weed Control (%) Obs ([2]; 8 gae/ha): 0% | Visual Weed Control (%) Obs ([2]; 16 gae/ha): 0% | Visual Weed Control (%) Obs ([2]; 32 gae/ha): 85%
